Some results are limits rather than exact numbers.

Common to all, as to type: cell-based
Data set [1] has as its system recombinant adenovirus (GFP tagging). Description: antiviral activity against recombinant adenovirus (GFP fluorescence intensity) in HEK293A cells. The note with it: for inhibition at 50 µM: unidentified adenovirus, HEK293-A, 72 h, read-out: virus inhibitory activity. The procedure: (§1) After dispensing HEK293A cells at 10,000 cells/well on a 96-well plate and stabilizing for 24 hours, the recombinant adenovirus (GFP tagging, MOI=0.5) prepared in Example and 18 compounds listed in Table 1 below (50 μM)) were treated and incubated for 24, 48 and 72 hours, the GFP fluorescence intensity (Excitation=485 nm, Emission=528 nm) was observed.

Another data set concerns HEK293A cells. Description: cell death / cytotoxicity in compound-treated HEK293A cells. Particulars: 50 μM compound, after 72 hours of treatment.
For data set [2], the system named is Herpes simplex virus (HSV). Description: antiviral activity against herpes simplex virus (HSV), same manner as the adenovirus test. Particulars: 50 μM, after 24 hours, 48 hours and 72 hours (FIG. 14). The procedure: as §1
The experiment was performed in the same manner as in the previous experiment, except that the virus type was changed to HSV and the antiviral activity was examined.

Data set [3] has as its system COVID-19 virus (COVID19 recombinant adenovirus). Description: COVID19 antibody-antigen polymerization reaction on combination treatment with ECCA A (Cyto X cell viability).

Consider `C=C(C)[C@@H]1CC[C@]2(C(=O)O)CC[C@]3(C)[C@H](CC[C@@H]4[C@@]5(C)[C@@H](C(=O)O)[C@H](O)C(C)(C)[C@@H]5CC[C@]43C)[C@@H]12` [Compound C2, Ceanothic acid], for which, in data set [1], the inhibition at 50 µM is ≥ 50%.

For `C=C(C)[C@@H]1CC[C@]2(C(=O)O)CC[C@]3(C)[C@H](CC[C@@H]4[C@@]5(C)C[C@@H](OC(=O)/C=C/c6ccc(O)cc6)[C@H](O)C(C)(C)[C@@H]5CC[C@]43C)[C@@H]12` [Compound C4, 2-O-E-p-coumaroyl alphitolic acid], the “virus inhibitory activity (in words)” value in data set [1] (50 μM compound, HEK293A cells, recombinant adenovirus MOI=0.5) is recorded as “excellent virus inhibitory activity”. In the data set with HEK293A cells, this compound gave a cell death of 100%.

For `C=C(C)[C@@H]1CC[C@]2(C(=O)O)CC[C@]3(C)[C@H](CC[C@@H]4[C@@]5(C)CC[C@H](O)C(C)(C)[C@@H]5CC[C@]43C)[C@@H]12` [Compound C10, ECCA A], the “antiviral activity on adenovirus, compared among C2, C6, C8 and C10” value in data set [1] (50 μM, after 24 hours, 48 hours and 72 hours (FIG. 13)) is “most excellent”. The inhibition at 50 µM in data set [1] is ≥ 50%. Also, the “antiviral activity on HSV” value in data set [2] is “most excellent”. In addition, in data set [3], the antigen-antibody polymerization reaction entry is listed as “effective antigen-antibody polymerization reaction was confirmed” and the “binding to the antigen fusion protein” value is reported as “excellent”.
